In publication PMC12090182, “Repurposing of the RIPK1-Selective Benzo[1,4]oxazepin-4-one Scaffold for the Development of a Type III LIMK1/2 Inhibitor” (ACS Chemical Biology, 2025):

Assays:
Assay in all cases: biochemical
Format in all cases: binding
[1] = target: 468 kinases including some pathogenic mutants (Homo sapiens, UniProt O75914); conditions: PAK3 (Entrez PAK3), 100 nM; read-out: Percent Control
[2] = target: 468 kinases including some pathogenic mutants (Homo sapiens, UniProt O94768); conditions: DRAK2 (Entrez STK17B), 100 nM; read-out: Percent Control
[3] = target: 468 kinases including some pathogenic mutants (Homo sapiens, UniProt O94806); conditions: PRKD3 (Entrez PRKD3), 100 nM; read-out: Percent Control
[4] = target: 468 kinases including some pathogenic mutants (Homo sapiens, UniProt O94921); conditions: PFTK1 (Entrez CDK14), 100 nM; read-out: Percent Control
[5] = target: 468 kinases including some pathogenic mutants (Homo sapiens, UniProt O95382); conditions: ASK2 (Entrez MAP3K6), 100 nM; read-out: Percent Control
[6] = target: 468 kinases including some pathogenic mutants (Homo sapiens, UniProt P00519, F317L); conditions: read-out: Percent Control
[7] = target: 468 kinases including some pathogenic mutants (Homo sapiens, UniProt P00519, T315I); conditions: read-out: Percent Control
[8] = target: 468 kinases including some pathogenic mutants (Homo sapiens, UniProt P00533, DEL752-759); conditions: read-out: Percent Control
[9] = target: 468 kinases including some pathogenic mutants (Homo sapiens, UniProt P10721, V559D); conditions: read-out: Percent Control
[10] = target: 468 kinases including some pathogenic mutants (Homo sapiens, UniProt P23443); conditions: S6K1 (Entrez RPS6KB1), 1000 nM; read-out: Percent Control
[11] = target: 468 kinases including some pathogenic mutants (Homo sapiens, UniProt P36896); conditions: ACVR1B (Entrez ACVR1B), 100 nM; read-out: Percent Control
[12] = target: 468 kinases including some pathogenic mutants (Homo sapiens, UniProt P42336, Q546K); conditions: read-out: Percent Control
[13] = target: 468 kinases including some pathogenic mutants (Homo sapiens, UniProt P42338); conditions: PIK3CB (Entrez PIK3CB), 100 nM; read-out: Percent Control
[14] = target: 468 kinases including some pathogenic mutants (Homo sapiens, UniProt P45985); conditions: MEK4 (Entrez MAP2K4), 1000 nM; read-out: Percent Control
[15] = target: 468 kinases including some pathogenic mutants (Homo sapiens, UniProt P49137); conditions: MAPKAPK2 (Entrez MAPKAPK2), 100 nM; read-out: Percent Control
[16] = target: 468 kinases including some pathogenic mutants (Homo sapiens, UniProt P51955); conditions: NEK2 (Entrez NEK2), 1000 nM; read-out: Percent Control
[17] = target: 468 kinases including some pathogenic mutants (Homo sapiens, UniProt Q08881); conditions: ITK (Entrez ITK), 100 nM; read-out: Percent Control
[18] = target: 468 kinases including some pathogenic mutants (Homo sapiens, UniProt Q12852); conditions: DLK (Entrez MAP3K12), 100 nM; read-out: Percent Control
[19] = target: 468 kinases including some pathogenic mutants (Homo sapiens, UniProt Q13188); conditions: MST2 (Entrez STK3), 100 nM; read-out: Percent Control
[20] = target: 468 kinases including some pathogenic mutants (Homo sapiens, UniProt Q13237); conditions: PRKG2 (Entrez PRKG2), 100 nM; read-out: Percent Control
[21] = target: 468 kinases including some pathogenic mutants (Homo sapiens, UniProt Q16816); conditions: PHKG1 (Entrez PHKG1), 100 nM; read-out: Percent Control
[22] = target: 468 kinases including some pathogenic mutants (Homo sapiens, UniProt Q96D53); conditions: ADCK4 (Entrez ADCK4), 100 nM; read-out: Percent Control
[23] = target: 468 kinases including some pathogenic mutants (Homo sapiens, UniProt Q9BYP7); conditions: WNK3 (Entrez WNK3), 100 nM; read-out: Percent Control
[24] = target: 468 kinases including some pathogenic mutants (Homo sapiens, UniProt Q9H093); conditions: SNARK (Entrez NUAK2), 100 nM; read-out: Percent Control
[25] = target: 468 kinases including some pathogenic mutants (Homo sapiens, UniProt Q9H4B4); conditions: PLK3 (Entrez PLK3), 1000 nM; read-out: Percent Control
[26] = target: 468 kinases including some pathogenic mutants (Homo sapiens, UniProt Q9P286); conditions: PAK7 (Entrez PAK7), 100 nM; read-out: Percent Control
[27] = target: 468 kinases including some pathogenic mutants (Homo sapiens, UniProt Q9UKI8); conditions: TLK1 (Entrez TLK1), 1000 nM; read-out: Percent Control
[28] = target: 468 kinases including some pathogenic mutants (Homo sapiens, UniProt Q9UL54); conditions: TAOK2 (Entrez TAOK2), 100 nM; read-out: Percent Control
[29] = target: 468 kinases including some pathogenic mutants (Homo sapiens, UniProt Q9Y2U5); conditions: MAP3K2 (Entrez MAP3K2), 1000 nM; read-out: Percent Control

Chain of 468 kinases including some pathogenic mutants (Homo sapiens, UniProt O94921) (O94921 whole entry, change not shown): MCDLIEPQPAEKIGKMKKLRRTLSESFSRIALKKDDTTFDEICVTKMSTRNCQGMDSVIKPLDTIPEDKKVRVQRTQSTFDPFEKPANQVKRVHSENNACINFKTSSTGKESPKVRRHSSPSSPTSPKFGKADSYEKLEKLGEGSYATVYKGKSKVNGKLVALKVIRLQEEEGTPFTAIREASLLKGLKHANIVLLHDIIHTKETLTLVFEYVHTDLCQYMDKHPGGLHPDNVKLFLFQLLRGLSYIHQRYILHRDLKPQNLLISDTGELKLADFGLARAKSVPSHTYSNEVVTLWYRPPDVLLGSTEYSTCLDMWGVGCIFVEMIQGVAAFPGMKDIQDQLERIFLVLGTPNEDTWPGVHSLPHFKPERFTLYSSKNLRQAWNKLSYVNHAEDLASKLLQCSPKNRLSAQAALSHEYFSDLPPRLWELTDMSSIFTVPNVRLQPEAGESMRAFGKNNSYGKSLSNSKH
Chain of 468 kinases including some pathogenic mutants (Homo sapiens, UniProt Q13188) (Q13188 whole entry, change not shown): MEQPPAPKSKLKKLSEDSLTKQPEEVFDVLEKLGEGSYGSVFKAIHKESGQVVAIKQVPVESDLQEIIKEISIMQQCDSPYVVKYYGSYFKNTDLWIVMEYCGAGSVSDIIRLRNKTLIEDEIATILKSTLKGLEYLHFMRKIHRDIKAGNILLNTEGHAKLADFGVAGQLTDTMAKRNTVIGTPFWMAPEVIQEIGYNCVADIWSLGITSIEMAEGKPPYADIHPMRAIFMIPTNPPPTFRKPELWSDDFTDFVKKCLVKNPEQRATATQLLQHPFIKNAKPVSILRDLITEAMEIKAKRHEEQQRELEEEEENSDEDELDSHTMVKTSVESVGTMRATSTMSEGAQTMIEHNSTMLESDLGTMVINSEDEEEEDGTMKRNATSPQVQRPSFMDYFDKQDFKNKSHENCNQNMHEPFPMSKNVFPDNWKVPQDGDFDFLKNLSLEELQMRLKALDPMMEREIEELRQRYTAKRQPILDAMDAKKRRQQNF
Chain of 468 kinases including some pathogenic mutants (Homo sapiens, UniProt Q96D53) (Q96D53 whole entry, change not shown): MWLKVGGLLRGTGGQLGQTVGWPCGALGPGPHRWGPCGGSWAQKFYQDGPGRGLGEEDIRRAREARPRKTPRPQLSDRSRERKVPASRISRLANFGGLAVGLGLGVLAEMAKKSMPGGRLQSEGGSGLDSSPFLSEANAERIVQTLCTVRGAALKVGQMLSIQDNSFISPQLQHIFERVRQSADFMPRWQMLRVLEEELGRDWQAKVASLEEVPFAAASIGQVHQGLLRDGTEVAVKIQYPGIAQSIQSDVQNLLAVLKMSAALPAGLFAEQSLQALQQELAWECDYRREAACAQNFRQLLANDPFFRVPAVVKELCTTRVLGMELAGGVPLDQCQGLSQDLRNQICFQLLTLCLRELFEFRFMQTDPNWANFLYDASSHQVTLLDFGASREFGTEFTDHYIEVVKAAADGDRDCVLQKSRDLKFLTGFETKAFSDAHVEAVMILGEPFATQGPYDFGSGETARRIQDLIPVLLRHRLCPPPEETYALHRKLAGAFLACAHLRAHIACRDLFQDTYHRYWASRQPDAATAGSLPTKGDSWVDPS
Chain of 468 kinases including some pathogenic mutants (Homo sapiens, UniProt O94768) (O94768 whole entry, change not shown): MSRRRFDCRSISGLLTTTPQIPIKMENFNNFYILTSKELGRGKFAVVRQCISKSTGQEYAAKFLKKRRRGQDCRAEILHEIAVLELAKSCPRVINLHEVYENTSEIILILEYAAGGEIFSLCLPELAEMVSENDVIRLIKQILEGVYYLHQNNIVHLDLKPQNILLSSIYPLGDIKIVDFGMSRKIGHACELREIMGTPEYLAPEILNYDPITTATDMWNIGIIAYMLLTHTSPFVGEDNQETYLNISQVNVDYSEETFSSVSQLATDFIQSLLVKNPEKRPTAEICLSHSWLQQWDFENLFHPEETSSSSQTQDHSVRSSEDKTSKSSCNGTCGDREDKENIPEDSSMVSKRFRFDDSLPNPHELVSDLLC
Chain of 468 kinases including some pathogenic mutants (Homo sapiens, UniProt Q9BYP7) (Q9BYP7 whole entry, change not shown): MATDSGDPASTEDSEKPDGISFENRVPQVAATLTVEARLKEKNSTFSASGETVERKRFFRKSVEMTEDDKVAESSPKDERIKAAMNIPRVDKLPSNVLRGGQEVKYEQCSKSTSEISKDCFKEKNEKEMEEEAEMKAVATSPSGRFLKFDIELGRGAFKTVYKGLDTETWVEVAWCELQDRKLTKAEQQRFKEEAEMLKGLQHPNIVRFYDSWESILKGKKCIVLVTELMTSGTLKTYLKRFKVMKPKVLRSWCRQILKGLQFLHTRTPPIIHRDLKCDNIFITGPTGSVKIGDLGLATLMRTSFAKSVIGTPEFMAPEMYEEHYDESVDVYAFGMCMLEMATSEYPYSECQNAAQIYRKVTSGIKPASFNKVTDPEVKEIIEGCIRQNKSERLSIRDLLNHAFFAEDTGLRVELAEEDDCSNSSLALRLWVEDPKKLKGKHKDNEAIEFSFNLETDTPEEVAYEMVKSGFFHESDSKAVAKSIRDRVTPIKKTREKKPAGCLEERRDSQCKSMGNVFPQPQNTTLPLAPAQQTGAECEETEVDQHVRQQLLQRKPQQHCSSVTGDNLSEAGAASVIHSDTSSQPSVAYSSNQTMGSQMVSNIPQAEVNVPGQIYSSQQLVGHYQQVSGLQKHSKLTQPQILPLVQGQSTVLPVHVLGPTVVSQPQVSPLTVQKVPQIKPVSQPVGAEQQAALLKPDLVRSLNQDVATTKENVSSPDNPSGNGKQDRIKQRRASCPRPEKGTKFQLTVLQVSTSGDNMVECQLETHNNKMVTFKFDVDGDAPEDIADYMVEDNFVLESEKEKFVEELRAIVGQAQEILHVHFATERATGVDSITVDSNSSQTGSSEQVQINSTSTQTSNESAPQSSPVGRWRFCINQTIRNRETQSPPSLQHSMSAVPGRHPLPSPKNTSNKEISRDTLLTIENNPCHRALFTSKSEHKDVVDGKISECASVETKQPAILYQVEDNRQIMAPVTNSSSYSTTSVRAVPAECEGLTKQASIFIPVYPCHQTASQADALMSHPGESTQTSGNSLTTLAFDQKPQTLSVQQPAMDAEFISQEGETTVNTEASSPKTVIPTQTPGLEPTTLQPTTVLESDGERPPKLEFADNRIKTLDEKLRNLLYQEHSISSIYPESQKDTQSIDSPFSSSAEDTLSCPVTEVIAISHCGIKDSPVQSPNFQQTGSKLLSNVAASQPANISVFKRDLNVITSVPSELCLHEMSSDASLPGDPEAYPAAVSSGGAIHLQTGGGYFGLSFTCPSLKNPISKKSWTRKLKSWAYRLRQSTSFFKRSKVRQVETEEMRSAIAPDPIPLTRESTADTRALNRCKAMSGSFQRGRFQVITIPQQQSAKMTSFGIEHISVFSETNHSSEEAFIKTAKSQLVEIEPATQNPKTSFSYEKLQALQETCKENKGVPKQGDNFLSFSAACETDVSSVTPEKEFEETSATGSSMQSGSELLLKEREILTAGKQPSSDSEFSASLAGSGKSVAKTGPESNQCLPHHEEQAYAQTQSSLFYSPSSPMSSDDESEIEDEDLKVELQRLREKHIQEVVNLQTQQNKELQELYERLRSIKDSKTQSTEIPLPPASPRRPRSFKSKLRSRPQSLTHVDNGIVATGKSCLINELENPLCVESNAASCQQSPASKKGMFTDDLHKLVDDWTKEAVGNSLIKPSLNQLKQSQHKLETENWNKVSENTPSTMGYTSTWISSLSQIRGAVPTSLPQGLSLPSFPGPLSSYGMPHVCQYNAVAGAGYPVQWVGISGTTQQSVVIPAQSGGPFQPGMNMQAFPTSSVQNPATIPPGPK
Chain of 468 kinases including some pathogenic mutants (Homo sapiens, UniProt P42338) (P42338 whole entry, change not shown): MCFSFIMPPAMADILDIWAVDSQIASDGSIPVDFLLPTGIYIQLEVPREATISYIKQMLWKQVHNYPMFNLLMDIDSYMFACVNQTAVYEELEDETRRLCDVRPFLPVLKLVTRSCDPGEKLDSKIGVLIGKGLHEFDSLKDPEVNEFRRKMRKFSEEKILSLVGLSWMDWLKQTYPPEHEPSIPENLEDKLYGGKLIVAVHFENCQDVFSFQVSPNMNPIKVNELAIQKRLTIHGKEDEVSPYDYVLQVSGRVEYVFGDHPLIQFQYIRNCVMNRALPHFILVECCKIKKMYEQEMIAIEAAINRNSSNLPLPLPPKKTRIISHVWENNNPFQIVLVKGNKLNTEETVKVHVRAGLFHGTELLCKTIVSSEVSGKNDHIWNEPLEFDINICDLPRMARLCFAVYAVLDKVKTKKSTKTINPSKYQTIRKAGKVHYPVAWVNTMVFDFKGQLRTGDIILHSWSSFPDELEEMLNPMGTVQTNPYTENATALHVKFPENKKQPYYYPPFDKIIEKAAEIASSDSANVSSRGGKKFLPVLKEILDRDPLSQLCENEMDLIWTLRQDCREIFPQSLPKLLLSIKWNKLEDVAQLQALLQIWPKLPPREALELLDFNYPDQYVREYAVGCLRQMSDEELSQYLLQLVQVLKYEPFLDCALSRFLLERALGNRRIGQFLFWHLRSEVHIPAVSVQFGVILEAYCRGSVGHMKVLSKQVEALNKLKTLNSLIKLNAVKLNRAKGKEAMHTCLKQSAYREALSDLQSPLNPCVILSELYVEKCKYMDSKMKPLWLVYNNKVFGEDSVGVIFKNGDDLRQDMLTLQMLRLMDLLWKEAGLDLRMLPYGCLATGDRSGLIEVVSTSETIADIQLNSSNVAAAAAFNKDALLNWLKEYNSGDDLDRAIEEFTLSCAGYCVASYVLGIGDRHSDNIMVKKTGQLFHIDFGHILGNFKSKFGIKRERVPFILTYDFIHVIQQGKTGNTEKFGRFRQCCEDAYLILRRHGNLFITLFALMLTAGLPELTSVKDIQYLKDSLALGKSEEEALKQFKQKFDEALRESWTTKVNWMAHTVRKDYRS

**Q.** Which results are given for CN1C(=O)[C@@H](N2CCc3c(nn(Cc4ccccc4)c3C(N)=O)C2=O)COc2cc(Cl)ccc21 [Compound 10, (S)-2-benzyl-6-(8-chloro-5-methyl-4-oxo-2,3,4,5-tetrahydrobenzo[b][1,4]oxazepin-3-yl)-7-oxo-4,5,6,7-tetrahydro-2H-pyrazolo[3,4-c]pyridine-3-carboxamide]?
**A.** remaining activity at 0.1 µM [1]: 53%; remaining activity at 0.1 µM [2]: 84%; remaining activity at 0.1 µM [3]: 76%; remaining activity at 0.1 µM [4]: 95%; remaining activity at 0.1 µM [5]: 76%; remaining activity at 0.1 µM [6]: 88%; remaining activity at 0.1 µM [7]: 100%; remaining activity at 0.1 µM [8]: 100%; remaining activity at 0.1 µM [9]: 69%; remaining activity at 1 µM [10]: 100%; remaining activity at 0.1 µM [11]: 89%; remaining activity at 0.1 µM [12]: 76%; remaining activity at 0.1 µM [13]: 100%; remaining activity at 1 µM [14]: 100%; remaining activity at 0.1 µM [15]: 53%; remaining activity at 1 µM [16]: 100%; remaining activity at 0.1 µM [17]: 79%; remaining activity at 0.1 µM [18]: 72%; remaining activity at 0.1 µM [19]: 64%; remaining activity at 0.1 µM [20]: 77%; remaining activity at 0.1 µM [21]: 94%; remaining activity at 0.1 µM [22]: 88%; remaining activity at 0.1 µM [23]: 73%; remaining activity at 0.1 µM [24]: 84%; remaining activity at 1 µM [25]: 100%; remaining activity at 0.1 µM [26]: 80%; remaining activity at 1 µM [27]: 100%; remaining activity at 0.1 µM [28]: 100%; remaining activity at 1 µM [29]: 100%
